Earlier results on 8 compounds are cited in article PMC10671431, “New Derivatives of N-Hydroxybutanamide: Preparation, MMP Inhibition, Cytotoxicity, and Antitumor Activity” (International Journal of Molecular Sciences, 2023).

The subject of one data set is B16-BL6 melanoma. The arrangement: method as in PMID 8050828. The conditions noted are these: mice with B16-BL6 melanoma; cited from earlier work.
The next data set deals with human glioma U-251 cells. Set-up: method as in PMID 10048980. The conditions noted are these: 10 μM, 96 h of exposure; cited from earlier work.
Data set [1] has as its system pancreatic adenocarcinoma HPAC cells. Set-up: method as in PMID 9224409. As to conditions: 4000 ng/mL (8.37 μM), 24 h of exposure; cited from earlier work.
Data set [2] has as its system rat prostate cells derived from R3327-MatLyLu Dunning tumor. Set-up: method as in PMID 10754522. The conditions noted are these: 4000 ng/mL (8.37 μM), 48 h of exposure; cited from earlier work.
Data set [3] deals with pancreatic carcinoma cells MiaPaCa2. Set-up: method as in PMID 24022491. As to conditions: 5 μM, 24 h of exposure; cited from earlier work.
Data set [4] has as its system pancreatic adenocarcinoma cells AsPC1. The arrangement: method as in PMID 10767785. As to conditions: 72 h of exposure, cited from earlier work.
The subject of data set [5] is pancreatic carcinoma cells CD18. Set-up: method as in PMID 24022491. The conditions noted are these: 5 μM, 24 h of exposure; cited from earlier work.
In data set [6] the test system is Shionogi hormone-responsive breast carcinoma cells. Set-up: method as in PMID 8347186. As to conditions: 156 μg/mL (326.61 μM), 96 h of exposure; cited from earlier work.
Data set [7] concerns pancreatic adenocarcinoma cells Capan1. Set-up: method as in PMID 10767785. The conditions noted are these: 72 h of exposure, cited from earlier work.
Data set [8] concerns human hepatocellular carcinoma cells HepG2. Set-up: method as in doi:10.17265/1934-7375/2015.06.002. The conditions noted are these: 72 h of exposure, cited from earlier work.
Data set [9] has as its system mouse breast carcinoma cells 4T1. Set-up: method as in PMID 31637006. As to conditions: concentrations up to 50 μg/mL (150.87 μM), 48 h of exposure; cited from earlier work.
The test system of data set [10] is human breast carcinoma cells MDA-MB-435. The arrangement: method as in PMID 31637006. The conditions noted are these: concentrations up to 50 μg/mL (150.87 μM), 48 h of exposure; cited from earlier work.
Data set [11] has as its system human histiocytic lymphoma cells U-937. The arrangement: method as in doi:10.17265/1934-7375/2015.06.002. As to conditions: 72 h of exposure, cited from earlier work.
For data set [12], the system named is hamster peritoneal macrophages. As to conditions: 72 h of exposure; cited from earlier work.
Data set [13] concerns WM266-4 melanoma cells in nude mice. The arrangement: method as in PMID 27687955. The conditions noted are these: cited from earlier work.
Data set [14] has as its system co-cultured neonatal rat ventricular fibroblasts and myocytes. The arrangement: method as in PMID 19365278. As to conditions: 24 h of exposure; cited from earlier work.
Another data set deals with Lewis lung carcinoma. Set-up: method as in PMID 9247252. As to conditions: cited from earlier work.
Data set [15] concerns human MV522 lung cancer cells in nude mice. The arrangement: method as in PMID 10430098. As to conditions: cited from earlier work.
The subject of data set [16] is human malignant glioma cells U-87. The arrangement: method as in PMID 10213221. The conditions noted are these: cited from earlier work.
For data set [17], the system named is hormone-sensitive prostate cancer G subline of Dunning tumor. Set-up: method as in PMID 16096433. The conditions noted are these: rats; cited from earlier work.
The target in the next data set is gelatinase A (MMP-2). The arrangement: method as in earlier work. The conditions noted are these: read-out: IC50 for gelatinase A (MMP-2) inhibition; cited from earlier work.
The next data set relates to MMP-8. The arrangement: method as in PMID 23541335, PMID 16538215. The conditions noted are these: cited from earlier work.
In a further data set the test system is MMP-1. Set-up: method as in PMID 23541335, PMID 16538215. As to conditions: cited from earlier work.
A further data set has as its system MMP-13. The arrangement: method as in PMID 23541335, PMID 16538215. As to conditions: cited from earlier work.
The mark [18] stands for this setting: concentrations up to 10,000 ng/mL (20.94 μM).
Setting [19] is: higher concentrations (up to 100,000 ng/mL or 209.36 μM).

Where two headings read alike, the source gives them in different places.

Turning to `CNC(=O)[C@H](Cc1ccccc1)NC(=O)[C@H](CC(C)C)[C@H](CSc1cccs1)C(=O)NO` [Batimastat], the tumor growth entry with B16-BL6 melanoma is on record as “inhibit tumor growth”. The “reduction in cell viability” value with human glioma U-251 cells is given as 20–40%. Moreover, the “inhibition of cell growth” value in data set [1] and in data set [2] was “inhibit the growth” throughout. In addition, the toxicity to cells entry in data set [3] was “toxic”; in [4] (setting [18]) it was “no toxicity”; in [4] (setting [19]), “only mild toxicity”; in [5] it was “toxic”; in data set [7] (setting [18]) it was “no toxicity”; in data set [7] (setting [19]), “only mild toxicity”. The “effect on cell density” value in data set [6] is given as “no apparent effect”.
A word on the IC50: it is the point on the concentration scale where inhibition reaches its midpoint. In the case of `CNC(=O)[C@@H](NC(=O)[C@H](CC(C)C)[C@H](O)C(=O)NO)C(C)(C)C` [Marimastat], the “reduction in cell viability” value with human glioma U-251 cells is 20–40%. Moreover, the “cytotoxicity IC50” value in data set [8] was “higher than 200 μg/mL”; in data set [11], 10.8 µg/mL; in data set [12], “higher than 200 μg/mL”. The IC50 is more than 603 µM in data set [8] (read-out: cytotoxicity IC50) and 32.6 µM in [11] (read-out: cytotoxicity IC50). In addition, the effect on cells result in data set [9] and in [10] was “no effect” in each case.
With `Nc1ccc(Oc2ccc(S(=O)(=O)CC3CS3)cc2)cc1` (centres unmarked) [ND-322], the tumor growth entry in [13] is given as “inhibited the growth”.
For `CC(C)[C@H](NS(=O)(=O)c1ccc(-c2ccc(Br)cc2)cc1)C(=O)O` [PD166793], the “concentrations toxic to cells” value in data set [14] is “above 100 μM”.
As for `CC1(C)SCCN(S(=O)(=O)c2ccc(Oc3ccncc3)cc2)[C@H]1C(=O)NO` [Prinomastat], the tumor growth result (with Lewis lung carcinoma; in data set [15]) was “inhibit the growth” in each case. In data set [16], the “concentrations toxic to cells” value was “above 100 μM”.
Take `O=C1NC(=O)C(c2ccc(-c3ccccc3)cc2)(N2CCN(c3ccc([N+](=O)[O-])cc3)CC2)C(=O)N1` [RO 28-2653]: in data set [17], the tumor growth result is given as “inhibit the growth”.
For `C=C[C@H]1C[C@@H](C)C[C@@H](C)[C@@H]1c1c(O)ccn(O)c1=O` [pyridoxatin], at gelatinase A (MMP-2), the IC50 was 15.2 µM.
In the case of `O=C(C[C@H](CSc1ccccc1)C(=O)O)c1ccc(-c2ccc(Cl)cc2)cc1` [tanomastat], in the data set on MMP-8, the “inhibition of MMP-8” value is on record as “does not inhibit”. For the same compound, the “inhibition of MMP-1” value in the data set on MMP-1 is listed as “does not inhibit”. Further, the “inhibition of MMP-13” value in the data set with MMP-13 is recorded as “does not inhibit”.
